# Earlier results, collected in patent US11529387B2, “Nutritional supplements and methods of nutritional supplementation affecting global mood state” (Amare Global, priority 2019, dated 2022).
# Columns and labels:
# [1] = runners, submaximal running intensity, week 8 post-supplementation vs pre-supplementation and vs placebo, p<0.05
compound,measurement,setting,value
"CC1=C(/C=C/C(C)=C/C=C/C(C)=C/C=C/C=C(C)/C=C/C=C(C)/C=C/C2=C(C)C(=O)[C@@H](O)CC2(C)C)C(C)(C)C[C@H](O)C1=O [NAX, astaxanthin]",Global Mood State score,"8 weeks post-supplementation, lower score = more positive mood",127+20
same,Global Mood change,"8 weeks post-supplementation, lower score = more positive mood, p<0.05",−11%
same,Anger sub-scale change,"baseline to week 8, NS",−12%
same,Confusion sub-scale change,"baseline to week 8, NS",−28%
same,Tension sub-scale change,"baseline to week 8, NS",−20%
same,Vigor sub-scale change,"baseline to week 8, NS",+5%
same,Depression sub-scale change,"baseline to week 8, p<0.05",−57%
same,Fatigue sub-scale change,"baseline to week 8, p<0.05",−36%
same,"heart rate (HR) at AT, anaerobic threshold",[1],significantly lower heart rate
same,"heart rate (HR) at AeT, aerobic threshold",[1],significantly lower heart rate
